Measurements published in patent US20250171821A1, “HIF-1 ACTIVATORS AND USES THEREOF” (Ramot at Tel-Aviv University Ltd., priority 2022, published 2025).
“Also recorded” adds a separate entry of the source.

Columns and labels:
fibroblast cells = assay: live/dead viability assay, fibroblasts; assay type: cell-based; details: ML228 0.62 and 5 μM, 48 hours
Procedure: (§1) The live/dead viability assay (cat #04511-1KT-F Merck, Germany) was used according to the manufacturer's protocol. Briefly, cells were incubated in a medium supplemented with the indicated concentrations of ML228 for 48 hours. Fluorescein diacetate (6.6 μg/mL) and propidium iodide (5 μg/mL) (Merck, NJ, USA) were prepared in DMEM and added to the cells. Confocal images were captured after addition of the dyes with ZEISS LSM 900, Laser Scanning Microscope. Fluorescence readouts were obtained with ex/em of 490/515 nm and 535/617 nm for green and red, respectively. Cellular ATP levels were quantified using the cell-titer assay (Promega, WI, USA cat #G7570).

[1] = test system: human gingival fibroblasts cells (HGF); assay: Collagen-I immunofluorescence in human fibroblasts treated with ML228; assay type: cell-based; details: 48 hours
Excerpt: Human fibroblasts were isolated from fragments of healthy masticatory oral mucosa (from the posterior hard palate) collected during periodontal surgeries. Informed consent was obtained from all patients. Shallow tissue samples (without submucosa) with a diameter of approximately 2 mm were excised using a #15C scalpel blade. Exclusion criteria for potential tissue donors were smoking, any systemic disease, pregnancy or lactation, or a history of periodontal disease. Cells were separated into connective tissue and epithelium using dispase II (Sigma-Aldrich, Rehovot, Israel) at 2 mg/mL for two hours at 37° C.
Cells were cultured to sub-confluence on a 96-well plate culture plate or on round-glass cover slips in a 24 well plate and incubated with ML228 at 37° C. in 5% CO2 for 24-96 hours. Cells were fixed for 20 minutes with 4% paraformaldehyde in phosphate-buffered saline (PBS), washed 3 times with PBS, blocked with 2% bovine serum albumin diluted in PBS, which contains 0.1% Triton X-100 for 20 minutes. Fixed cells were incubated with 1:200 of rabbit anti-human type I collagen (Abcam, Cambridge, UK) for 1 hour at 25° C. […] Fluorescence readouts were obtained with excitation/emission (ex/em) of 495/519 nanometer (nm; green) and 340/488 nm (blue) (for FIGS. 2B and 2D); or with ex/em of 358/461 nm (blue), 495/519 nm (green) and 652/668 nm (red) (for FIG. 5A).
(§2) All images were analyzed with the computer-based image analysis system (Image J) using the Fiji 2 software (National Institute of Health). Equal field areas were selected for analysis and quantification of fluorescence signals. Quantification of fluorescence signal intensity measured by color threshold and normalized against β-tubulin intensity. Total collagen was evaluated by total fluorescence area intensity.
The effect of ML228 (chemical structure thereof is depicted in FIG. 1), a known activator of HIF, on fibroblasts and osteoblasts was analyzed. […] Collagen-I levels were evaluated by immunohistochemistry via Collagen-I antibody and a fluorescently-labeled secondary antibody. […]

MG-63 osteoblasts = assay: Collagen-I immunofluorescence in MG-63 osteoblasts treated with ML228; assay type: cell-based, human
Procedure: MG-63 human osteosarcoma cell lines were obtained from the American Type Culture Collection (ATCC, Manassas, VA, USA). Cells were cultured in α-MEM supplemented with 10% FCS, 100 U/ml penicillin, and […] streptomycin at 37° C. in a humidified atmosphere incubator containing 5% CO2. Before treatment with ML228, 5,000 and 50,000 cells/well were seeded in a 96 or 24 well-plate, respectively.
Cells were cultured to sub-confluence on a 96-well plate culture plate or on round-glass cover slips in a 24 well plate and incubated with ML228 at 37° C. in 5% CO2 for 24-96 hours. […] Fluorescence readouts were obtained with excitation/emission (ex/em) of 495/519 nanometer (nm; green) and 340/488 nm (blue) (for FIGS. 2B and 2D); or with ex/em of 358/461 nm (blue), 495/519 nm (green) and 652/668 nm (red) (for FIG. 5A).
as §2
The effect of ML228 (chemical structure thereof is depicted in FIG. 1), a known activator of HIF, on fibroblasts and osteoblasts was analyzed. […]

MG-63 cells = assay: live/dead viability assay, osteoblasts; assay type: cell-based; details: MG-63 osteoblasts, ML228 0.62 and 5 μM, 48 hours
Procedure: as §1

NIH/3T3 cell line = assay: Cell confluence / number of cells per image in NIH/3T3 cells; assay type: cell-based, mouse; details: 0.63-5 μM ML228, 48 hours, p<0.0001
Procedure: Embryonic mouse fibroblast NIH/3T3 cell line (ATCC) were seeded at a concentration of 50*10^3 cells/well on 96 well glass bottom plate (P96-1.5H-N, Cellvis) for the immunofluorescence experiment and on cell culture microplate, 96 well, PS, F-Bottom (655090, greiner) for the viability experiment. The cells were cultured with Dulbecco's modified Eagle's medium (DMEM) supplemented with 10% fetal calf serum, 1% Penicillin-Streptomycin solution and 1% L-glutamine (All purchased from Rhenium). At 24 hours post seeding, cells were treated for another 48 hours by replacing them with the cell medium supplemented with a serial dilution (5-0.02 μM, factor dilution of 2) of the ML228, Daprodustat, Enarodustat, Molidustat, Vadadustat or Roxadustat molecules dissolved in DMSO. The final DMSO concentration in the cell medium was 0.01%. Cells were maintained in an incubator at 37° C. in a humidified atmosphere containing 5% CO2.
Image acquisition and quantification were performed by Incucyte SX5 (Sartorius) using software version 2022B Rev2. A standard scan was done for 9 images per well using 20× objective, 2 optical modules (green at excitation/emission of 453-485 nm/494-533 nm in 300 msec acquisition time, and near-IR at excitation/emission of 648-674 nm/685-756 nm in 400 msec acquisition time, including Phase channel) following immunofluorescence protocol. For the image analysis, 2-6 replicates per condition were used. Using the Basic Analyzer mode, “Phase Object Confluence (%)” was acquired using the Phase channel. This measurement is the percentage of the image area occupied by cells. “Total Collagen-I Integrated Intensity Per Image (GCU×μm^2/Image)” was acquired using the green optical module. GCU stands for Green calibrated Unit, while this measurement is the total sum of the Collagen-I objects' fluorescent intensity in the image. “#Cells (Per image)” was acquired by the near-IR optical module. This measurement was calculated by counting the number of nuclei per image.
Multiple comparisons were performed by ordinary one-way ANOVA followed by Dunnett's post-hoc statistical hypothesis for comparing each condition mean to the control mean. Statistical analysis was done using GraphPad Prism version 10.0.0 for Windows, GraphPad Software, Boston, Massachusetts USA, worldwideweb(dot)graphpad(dot)com. For statistical analysis, significance was set as (*) p≤0.05; (**) p≤0.01; (***) p≤0.001; (****) p≤0.0001 and (ns; not significant) p>0.05.

SMILES: c1ccc(-c2ccc(CNc3nc(-c4ccccn4)nnc3-c3ccccc3)cc2)cc1 [ML228, N-([1,1′-Biphenyl]-4-ylmethyl)-6-phenyl-3-(2-pyridinyl)-1,2,4-triazin-5-amine]
- cell death / cellular toxicity (live/dead assay) (fibroblast cells): without imparting cellular toxicity; also recorded: without imparting cellular death; also recorded: not an increase in cell death
- Collagen-I levels compared to baseline of non-treated cells ([1]; ML228 above 312 nM, normalized to cell number (DAPI), FIG. 5C): more than two-fold higher
- Collagen-I levels at higher concentrations ([1]; ML228 above 10 μM (10 or 20 μM), HGF cells): gradually decrease
- concentration at which maximum collagen levels were observed ([1]; fibroblasts): 5 µM
- concentration of maximum enhancement of Collagen-I (MG-63 osteoblasts; MG-63, 48 hours, normalized to cell number (DAPI), FIG. 9B): 5 µM
- increase in collagen levels compared to non-treated cells (MG-63 osteoblasts; osteoblasts (MG-63), variable ML228 concentrations, 48 hours): more than a three-fold increase; also recorded: increased
- cell death / cellular toxicity (live/dead assay) (MG-63 cells): without imparting cellular toxicity; also recorded: Almost no dead cells were observed; also recorded: not an increase in cell death
- cell confluence vs untreated cells (NIH/3T3 cell line): significant reduction
